How the values were obtained:
Format in all cases: cell-based
[1] = tested on: human WT, DMD and DM1 cells; test: Myotube formation, across WT, DMD and DM1 cells
Experimental: Briefly, the aforementioned cells (DMD, DM1 and WT) were cultured and maintained in 75 cm 2 flasks with skeletal growth medium (Promocell skeletal muscle cell basal medium supplemented with growth factors, calf serum and P/S 1%) at 37° C. in a humidified atmosphere of 5% CO2, until 80% confluence. Glass cover slip substrates (12 mm diameter) were sterilised with UV light for 30 min and then coated with 3.6 μg of fibronectin (FN). After incubation with the FN coating for 1 h at RT, cells were then seeded at 40.000 cells/well (p-24 plate) in skeletal muscle cell basal medium.
(§1) For the examples where a boron compound was added, after the previous step, different amounts of the boron compound were added in the culture medium, Promocell skeletal muscle cell basal medium).
(§2) After 24 h of culture growth medium was changed by myoblast differentiation medium (DMEM high glucose/P/S 1%, insulin 10 μg/mL) and for the examples where the boron compound was added, then different amounts of boron compound were added. Differentiation medium was changed every 2 days and if necessary, the same amount of the boron compound, as previously incorporated was also added in every change. Myotube formation was evaluated after 8 days.
Cells were fixed with formalin 4% at the end of the culture for 30 minutes at 4° C. After fixing, cells were washed and conserved at 4° C. in DPBS. Starting with the fixed cells preserved at 4° C. in DPBS, samples were then rinsed with DPBS and permeabilised with DPBS/0.5% Triton X-100 at room temperature for 5 min. Samples were then incubated with sarcomeric α-actinin primary antibody (abcam, 1:200), muscle marker for immunofluorescence detection, in blocking buffer DPBS/2% BSA at 37° C. for 1 h or overnight at 4° C. […]
Cells were cultured and maintained in 75 cm^2 flasks with skeletal growth medium (Promocell skeletal muscle cell basal medium supplemented with growth factors, calf serum and P/S 1%) at 37° C. in a humidified atmosphere of 5% CO2, until 80% confluence. […] Myotube formation was evaluated after 8 days. […]

human DMD cells [2] = test: Myotube formation (sarcomeric α-actinin immunofluorescence) in DMD muscle cells; conditions: 8 days
human DM1 cells = test: Myotube formation (sarcomeric α-actinin immunofluorescence) in DM1 muscle cells; conditions: 8 days
Experimental: (§3) Briefly, the aforementioned cells (DMD, DM1 and WT) were cultured and maintained in 75 cm 2 flasks with skeletal growth medium (Promocell skeletal muscle cell basal medium supplemented with growth factors, calf serum and P/S 1%) at 37° C. in a humidified atmosphere of 5% CO2, until 80% confluence. […] After incubation with the FN coating for 1 h at RT, cells were then seeded at 40.000 cells/well (p-24 plate) in skeletal muscle cell basal medium.
as §1, §2
(§4) Cells were fixed with formalin 4% at the end of the culture for 30 minutes at 4° C. After fixing, cells were washed and conserved at 4° C. in DPBS. Starting with the fixed cells preserved at 4° C. in DPBS, samples were then rinsed with DPBS and permeabilised with DPBS/0.5% Triton X-100 at room temperature for 5 min. Samples were then incubated with sarcomeric α-actinin primary antibody (abcam, 1:200), muscle marker for immunofluorescence detection, in blocking buffer DPBS/2% BSA at 37° C. for 1 h or overnight at 4° C. The samples were then rinsed twice in DPBS/0.1% Triton X-100 and incubated with the secondary antibody anti mouse Cy3 (Invitrogen, 1:200) in blocking buffer at room temperature for 1 h. Finally, samples were washed twice in DPBS/0.1% Triton X-100 before mounting with Vectashield containing DAPI (Vector Laboratories) and observed under an epifluorescence microscope (Nikon Eclipse 80i).
(§5) Cells were cultured and maintained in 75 cm^2 flasks with skeletal growth medium (Promocell skeletal muscle cell basal medium supplemented with growth factors, calf serum and P/S 1%) at 37° C. in a humidified atmosphere of 5% CO2, until 80% confluence. […] After incubation with the FN coating for 1 h at RT, cells were then seeded at 40,000 cells/well (p-24 plate) in Promocell skeletal muscle cell basal medium. After 24 h of culture, growth medium was changed by myoblast differentiation medium (DMEM high glucose/P/S 1%, insulin 10 μg/mL) and different amounts of bortezomib 5.4 10^−6 μg (0.0000054 μg) Ex 1.1, 2.7 10^−5 μg (0.000027 μg) Ex 1.2, 5.4 10^−5 μg (0.000054 μg) Ex 1.3, and 1.1 10^−4 μg (0.00011 μg) Ex 1.4 (all non-cytotoxic concentrations) were added to each sample in the culture medium. Differentiation medium was changed every 2 days and the different amounts of bortezomib 5.4 10^−6 μg, 2.7 10^−5 μg, 5.4 10^−5 μg and 1.1 10^−4 μg, were added to each sample in every change. Myotube formation was evaluated after 8 days. Cells were fixed as described in the control samples. Afterwards, the samples were also rinsed and washed as described in the control samples. […]

[3] = tested on: human wild type (WT) cells; test: Myotube formation (sarcomeric α-actinin immunofluorescence) in wild type muscle cells; conditions: 8 days
Experimental: as §3, §1, §2, §4, §5

human DMD cells [4] = test: Myotube formation (sarcomeric α-actinin immunofluorescence) in DMD muscle cells; conditions: 8 days; remark: listed apart in the source
Experimental: as §3, §1, §2, §4, §5

[5] = bortezomib added in the culture medium, 8 days
[6] = DMD, without fibronectin, bortezomib 1.1 10^−4 μg
[7] = DMD, without fibronectin, bortezomib 2.7 10^−5 μg
[8] = DMD, without fibronectin, bortezomib 5.4 10^−5 μg
[9] = DMD, without fibronectin, bortezomib 5.4 10^−6 μg
[10] = DMD-FN, with fibronectin (3.6 μg coating), bortezomib 2.7 10^−5 μg
[11] = DMD-FN, with fibronectin (3.6 μg coating), bortezomib 5.4 10^−5 μg
[12] = DM1, without fibronectin, bortezomib 1.1 10^−4 μg
[13] = DM1, without fibronectin, bortezomib 2.7 10^−5 μg
[14] = DM1, without fibronectin, bortezomib 5.4 10^−5 μg
[15] = DM1, without fibronectin, bortezomib 5.4 10^−6 μg
[16] = DM1-FN, with fibronectin (3.6 μg coating), bortezomib 1.1 10^−4 μg
[17] = DM1-FN, with fibronectin (3.6 μg coating), bortezomib 2.7 10^−5 μg
[18] = DM1-FN, with fibronectin (3.6 μg coating), bortezomib 5.4 10^−5 μg
[19] = DM1-FN, with fibronectin (3.6 μg coating), bortezomib 5.4 10^−6 μg
[20] = WT, without fibronectin, bortezomib 1.1 10^−4 μg
[21] = WT, without fibronectin, bortezomib 2.7 10^−5 μg
[22] = WT, without fibronectin, bortezomib 5.4 10^−5 μg
[23] = WT, without fibronectin, bortezomib 5.4 10^−6 μg
[24] = WT-FN, with fibronectin (3.6 μg coating), bortezomib 1.1 10^−4 μg
[25] = WT-FN, with fibronectin (3.6 μg coating), bortezomib 2.7 10^−5 μg
[26] = WT-FN, with fibronectin (3.6 μg coating), bortezomib 5.4 10^−5 μg
[27] = WT-FN, with fibronectin (3.6 μg coating), bortezomib 5.4 10^−6 μg
[28] = DMD-FN, with fibronectin (3.6 μg coating), bortezomib 1.1 10^−4 μg
[29] = DMD-FN, with fibronectin (3.6 μg coating), bortezomib 5.4 10^−6 μg

CC(C)C[C@H](NC(=O)[C@H](Cc1ccccc1)NC(=O)c1cnccn1)B(O)O [bortezomib, ((R)-3-Methyl-1-((S)-3-phenyl-2-(pyrazine-2-carboxamido)propanamido)butyl)boronic acid]
myotube diameter [1, 5]: importantly increased myotube diameter | myotube differentiation [1, 5]: enhanced myotube differentiation | myotube formation and diameter ([1]; dystrophic cells, bortezomib together with FN): restored myotube formation (fusion capability) and improved myotube diameter | % of cell differentiation (human DMD cells [2]; [6]): 1% | myotube diameter (human DMD cells [2]; [6]): 2 μm | myotube diameter (human DMD cells [2]; [7]): 27 μm | % of cell differentiation (human DMD cells [2]; [8]): 5% | myotube diameter (human DMD cells [2]; [8]): 5 μm | % of cell differentiation (human DMD cells [2]; [9]): 9% | myotube diameter (human DMD cells [2]; [9]): 15 μm | % of cell differentiation (human DMD cells [2]; [10]): 80% | myotube diameter (human DMD cells [2]; [11]): 46 μm | % of cell differentiation (human DM1 cells; [12]): 1% | myotube diameter (human DM1 cells; [12]): 4 μm | % of cell differentiation (human DM1 cells; [13]): 13% | myotube diameter (human DM1 cells; [13]): 11 μm | % of cell differentiation (human DM1 cells; [14]): 0.5% | myotube diameter (human DM1 cells; [14]): 4 μm | % of cell differentiation (human DM1 cells; [15]): 14% | myotube diameter (human DM1 cells; [15]): 11 μm | % of cell differentiation (human DM1 cells; [16]): 1% | myotube diameter (human DM1 cells; [16]): 23 μm | % of cell differentiation (human DM1 cells; [17]): 55% | myotube diameter (human DM1 cells; [17]): 79 μm | % of cell differentiation (human DM1 cells; [18]): 54% | myotube diameter (human DM1 cells; [18]): 130 μm | % of cell differentiation (human DM1 cells; [19]): 37% | myotube diameter (human DM1 cells; [19]): 44 μm | % of cell differentiation [3, 20]: 0% | myotube diameter [3, 20]: 0 μm | % of cell differentiation [3, 21]: 55% | myotube diameter [3, 21]: 60 μm | % of cell differentiation [3, 22]: 45% | myotube diameter [3, 22]: 48 μm | % of cell differentiation [3, 23]: 47% | myotube diameter [3, 23]: 32 μm | % of cell differentiation [3, 24]: 39% | myotube diameter [3, 24]: 63 μm | % of cell differentiation [3, 25]: 79% | myotube diameter [3, 25]: 319 μm | % of cell differentiation [3, 26]: 72% | myotube diameter [3, 26]: 270 μm | % of cell differentiation [3, 27]: 70% | myotube diameter [3, 27]: 122 μm | % of cell differentiation (human DMD cells [4]; [7]): 31% | % of cell differentiation (human DMD cells [4]; [28]): 17% | myotube diameter (human DMD cells [4]; [28]): 17 μm | myotube diameter (human DMD cells [4]; [10]): 72 μm | % of cell differentiation (human DMD cells [4]; [11]): 61% | % of cell differentiation (human DMD cells [4]; [29]): 47% | myotube diameter (human DMD cells [4]; [29]): 45 μm
